Results: patent EP0371732A1, “Dopamine-beta-hydroxylase inhibitors” (SMITHKLINE BEECHAM CORPORATION, priority 1988, dated 1990)

Tests used:
[1] = system: spontaneously hypertensive rats; experiment: mean arterial blood pressure in spontaneously hypertensive rats, indwelling cannulae in the tail arteries; assay type: in vivo; details: 50 mg/kg intraperitoneally, compared to vehicle-treated controls
Description: Further, spontaneously hypertensive rats were treated with 1-(2-pyrrylmethyl)-1,3-dihydro-2H-imidazole-2-thione at a dose of 50 mg/kg intraperitoneally, and mean arterial blood pressure was monitored for 250 minutes using indwelling cannulae in the tail arteries. […] The maximal blood pressure reduction was approximately 35-40 mmHg.

[2] = Teresawa et al., Japan. Cir. J. 35, 339 (1971); cited from earlier work
DBH = target: T1, DBH (Homo sapiens, UniProt P09172); details: reported by Runti et al.; cited from earlier work
T1 sequence (P09172 1-617): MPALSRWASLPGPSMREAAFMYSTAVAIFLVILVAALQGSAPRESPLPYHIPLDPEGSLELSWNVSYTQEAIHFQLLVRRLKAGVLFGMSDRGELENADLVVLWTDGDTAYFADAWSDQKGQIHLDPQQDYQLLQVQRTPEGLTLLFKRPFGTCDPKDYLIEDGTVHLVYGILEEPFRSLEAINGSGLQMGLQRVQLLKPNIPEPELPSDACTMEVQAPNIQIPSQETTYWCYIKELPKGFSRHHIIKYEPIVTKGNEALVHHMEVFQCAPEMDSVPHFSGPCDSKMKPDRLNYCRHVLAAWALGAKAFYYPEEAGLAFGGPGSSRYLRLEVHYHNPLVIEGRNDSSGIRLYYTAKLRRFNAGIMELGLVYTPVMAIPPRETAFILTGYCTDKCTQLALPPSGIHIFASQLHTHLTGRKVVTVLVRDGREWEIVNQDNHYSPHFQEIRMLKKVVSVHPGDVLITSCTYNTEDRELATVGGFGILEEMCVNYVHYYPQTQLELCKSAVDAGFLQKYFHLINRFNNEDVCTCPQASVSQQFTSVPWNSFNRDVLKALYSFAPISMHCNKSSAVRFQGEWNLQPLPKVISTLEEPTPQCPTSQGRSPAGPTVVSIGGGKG

S=c1[nH]ccn1Cc1ccc[nH]1 [1-(2-Pyrrylmethyl)-1,3-dihydro-2H-imidazole-2-thione]
time to significant blood pressure reductions following treatment [1]: ≤ 30 min | maximal blood pressure reduction ([1]; monitored for 250 minutes, lowest blood pressures when monitoring was discontinued): 35-40 mmHg

CCCCc1ccc(C(=O)O)nc1 [Fusaric acid]
toxic effect [2]: hepatotoxic

phenylpicolinic acid
inhibitory activity relative to fusaric acid (DBH): twice the inhibitory activity of fusaric acid
